This note sets out measurements from patent publication US11766434B2, “Pyrimidinone derivatives as CDC7 inhibitors” (Cancer Research Technology Limited, priority 2016, dated 2023).

One assay concerns the target Cdc7 (Homo sapiens, UniProt O00311). Briefly: Cdc7 cell pharmacodynamics assay Method 1: pS53MCM2 levels in HCT116 cells. Type of assay: cell-based. Also on record: endogenous in cells. Conditions: 6 hours treatment, read-out: Biomarker Method 1 (pEC50) (converted). The source says: This protocol describes a method to investigate the inhibition of Cdc7 activity of compounds by measuring pS53MCM2 levels in cells after treatment.
• HCT116 cells (wild type P53 positive) • McCoys 5A media (PAA Laboratories Ltd, E15-022) • 10% FCS (Sera Laboratories International Ltd, EU000F Batch: 108005) • 100× L-Glutamine (Invitrogen, 25030-024) • D-PBS without CaCl2 and MgCl2 (Invitrogen, ref. 14190-094) • Trypsin/EDTA (Invitrogen 25300-054) • 2% BSA in PBS • Cell Extraction Buffer (Invitrogen FNN0011) • Protease inhibitor cocktail (Sigma P-2714) • PMSF 0.3M stock in DMSO (Sigma P7626) • Antibody—rabbit pMCM2 Ser53 (Bethyl #A300-756A) • Antibody—goat MCM2 (Bethyl #A300-122A) • Antibody—goat Anti Rabbit IgG HRP (Perbio Science UK Ltd 31462) • 1×PBS • FACE Wash buffer (0.02% Triton X100 in 1×PBS) • SuperSignal ELISA Pico Chemiluminescent Substrate (Perbio Science UK Ltd 37070) Method • 72 hours prior to the start of the experiment plate 1×10^6 HCT116 cells in a 150 cm^2 flask in complete McCoys 5A media (+10% FCS+1× L-glutamine). • Plate 20,000 HCT116 cells per well in standard TC treated 96 well plate in 100 μL complete McCoys 5A media. • Allow cells to settle overnight in incubator set at 37° C. and 5% CO2. • Remove intermediate plate from fridge and place at 37° C. overnight to allow to equilibrate. • Cell treatment: cell assay plate 100 μL; daughter to cell transfer volume 3.33 μL; daughter volume 45 μL; mother plate to daughter volume 5 μL. • Once all cells are treated remove the cells to the incubator and incubate for 6 hours. • Dilute the capture antibody (total MCM2 #A300-122A) 1 in 250 in the required volume of PBS (5 mL per assay plate) and add 50 μL to each well of a Hybond plate excluding wells 12E to 12H. In these wells add 50 μL PBS. Seal the plate and incubate at room temperature fora minimum of 2 hours. • Defrost aliquot of Invitrogen Cell Extraction Buffer (FNN0011) on ice and supplement with appropriate volume of both Sigma protease inhibitor cocktail (P-2714) and PMSF (final cone 1 mM from a […] in DMSO). • After the 6 hour cell treatment time tap out the media from the assay plates and place them in the −70° C. freezer for at least 5 minutes. • Remove plates from freezer and add 20 μL of ice cold complete lysis buffer on ice. Incubate cells for 30 minutes at 4° C. • Add 80 μL per well 2% BSA. • Transfer 80 μL from the lysis plate to the same wells in the capture/ELISA plate. Cover with plate seal and incubate plates overnight at 4° C. • Wash plates with PBS, remove any residual remaining liquid and add 50 μL per well of pMCM2 Ser53 antibody (#A300-756A) diluted 1 in 100 in 2% BSA. Cover plate and incubate at room temperature for 2 hours with gentle shaking. • Wash plates with PBS, remove any residual remaining liquid and Incubate with 50 μL goat anti rabbit antibody (1 in 800 dilution in 2% BSA) for 1 hour at room temperature. • Wash plates with PBS, remove any residual remaining liquid and add 50 μL mixed SuperSignal Pico substrate. • Incubate each plate for 5 minutes at room temperature shielding the plates from direct light (with a cover plate). Read plates with the luminescent detection. Method 2

For another assay, the target named is Cdc7/ASK (Homo sapiens, UniProt O00311). Briefly: Cdc7 biochemical assay Method 1: 384 well ELISA, MCM2 whole protein substrate, Phospho MCM2 (S53) antibody. Also on record: purchased. To be noted: ATP 2 μM, 90 minutes, read-out: Biochemical method 1 (pIC50) (converted). Here is the method: This protocol describes a method for assaying Cdc7/ASK for activity. The assay is a 384 well ELISA assay, utilising a whole protein substrate (MCM2) and an antibody against Phospho MCM2 (S53). This site is thought to be specific to Cdc7/ASK phosphorylation and the assay has been validated using knockout mutants.
Chain of Cdc7/ASK (O00311 whole entry): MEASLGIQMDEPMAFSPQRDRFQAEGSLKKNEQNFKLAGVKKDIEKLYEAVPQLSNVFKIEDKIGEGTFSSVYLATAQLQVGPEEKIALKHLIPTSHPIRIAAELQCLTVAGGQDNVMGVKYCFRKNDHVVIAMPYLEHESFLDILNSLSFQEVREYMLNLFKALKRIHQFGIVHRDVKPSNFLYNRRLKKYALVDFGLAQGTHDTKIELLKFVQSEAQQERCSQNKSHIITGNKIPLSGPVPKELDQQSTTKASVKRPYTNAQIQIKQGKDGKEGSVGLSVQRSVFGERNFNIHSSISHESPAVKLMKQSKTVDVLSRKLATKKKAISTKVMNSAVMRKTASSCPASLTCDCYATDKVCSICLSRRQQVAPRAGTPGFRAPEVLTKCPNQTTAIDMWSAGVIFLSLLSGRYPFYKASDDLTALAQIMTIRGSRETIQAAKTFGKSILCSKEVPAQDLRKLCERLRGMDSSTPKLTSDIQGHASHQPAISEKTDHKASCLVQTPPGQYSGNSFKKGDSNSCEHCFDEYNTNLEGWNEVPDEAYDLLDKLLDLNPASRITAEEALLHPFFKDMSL
Chain of Cdc7/ASK (Q9UBU7 whole entry partner): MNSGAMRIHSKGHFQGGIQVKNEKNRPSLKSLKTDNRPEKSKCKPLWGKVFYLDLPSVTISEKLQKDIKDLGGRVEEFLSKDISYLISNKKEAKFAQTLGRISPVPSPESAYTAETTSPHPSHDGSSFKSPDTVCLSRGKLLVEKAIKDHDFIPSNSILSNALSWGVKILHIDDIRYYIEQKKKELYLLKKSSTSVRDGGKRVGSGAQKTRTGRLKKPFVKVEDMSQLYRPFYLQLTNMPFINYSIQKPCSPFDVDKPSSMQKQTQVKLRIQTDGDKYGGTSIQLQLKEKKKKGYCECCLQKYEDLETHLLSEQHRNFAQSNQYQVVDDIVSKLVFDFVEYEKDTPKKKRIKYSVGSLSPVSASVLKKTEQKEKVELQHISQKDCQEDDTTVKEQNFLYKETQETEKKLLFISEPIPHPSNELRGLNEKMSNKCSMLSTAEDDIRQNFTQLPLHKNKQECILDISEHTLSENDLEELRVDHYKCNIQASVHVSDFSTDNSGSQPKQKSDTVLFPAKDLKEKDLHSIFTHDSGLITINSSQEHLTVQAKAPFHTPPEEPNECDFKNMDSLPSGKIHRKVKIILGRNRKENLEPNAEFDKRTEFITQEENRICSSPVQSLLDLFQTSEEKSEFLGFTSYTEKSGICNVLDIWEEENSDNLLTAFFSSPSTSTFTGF
• TBS: 25 mM Tris pH 7.2, 150 mM NaCl. (Dilute 10× stock by 1:10). • Wash Buffer: TBS+0.05% Tween 20. (Add 100 mL 1 M Tris pH 7.2, 120 mL 5 M NaCl and 2 mL 100% Tween 20 per 4 L). • Kinase Reaction Buffer: 50 mM Tris-HCl pH 8.5, 10 mM MgCl2, 1 mM DTT. (Dilute 10× stock by 1:10 and add 100 μL 1M DTT per 100 mL prior to assay). • Diethanolamine Buffer: 1 M diethanolamine pH 9.8, 0.5 mM MgCl2. • Stop Solution: 1 M NaOH. • MCM2 was expressed and purified in-house and used in the assay at a final assay concentration of 436 ng/well. • Cdc7/ASK is purchased from commercial suppliers and used in the assay at a final assay concentration of 37.97 ng/well or 20.63 nM. • ATP used as a final assay concentration of 2 μM. • Primary Antibody: Rabbit anti-Phospho MCM2 (S53 Antibody (BL3353)), is purchased from commercial suppliers at 0.2 mg/mL and used at a final assay concentration by diluting 1:800 in TBS. • Secondary Antibody: Anti-Rabbit/AP Antibody is supplied is purchased from commercial suppliers at 1 mg/mL and used at a final assay concentration by diluting 1:2000 in TBS. • Development Reagent: Dissolve one 20 mg PNPP tablet (Sigma, product N2765, 20 mg per tablet) per 20 mL diethanolamine Buffer (or one 5 mg PNPP tablet per 5 mL diethanolamine buffer). Cover in foil and leave shaking on a roller shaker at room temperature for up to an hour to dissolve. Methods • 1. Add 20 μL 1× working stock of Substrate (MCM2) in TBS to all wells of a clear, 384 well, Nickel-chelate microplate to give a final concentration of 250 ng/well. Incubate at room temperature for at least 1 hour. Plates can be pre-coated for 1 hour and stored at 4° C. for up to 8 days. • 2. Wash with TBS+0.05% Tween 20 (80 μL x 3). • 3. Add 2 μL 10× test compounds, including the positive control, in 40% DMSO/water to ‘test’ wells. Add 2 μL 40% DMSO/water to ‘control’ and ‘blank’ wells. The final DMSO concentration will be 4%. • 4. Add 13 μL CDCl7/ASK Kinase (1.5× stock) in Kinase Reaction Buffer to ‘test’ and ‘control’ wells to give a final concentration of […]. Add 13 μL Kinase Reaction Buffer to ‘blank’ wells. • 5. Add 5 μL ATP (4× stock) in Kinase Reaction Buffer to all wells to give a final concentration of 2 μM. • 6. Incubate at room temperature for 90 minutes. • 7. Wash with TBS+0.05% Tween 20 (80 μL x 3). • 8. Add 20 μL 1× working solution of Primary Antibody in TBS to all wells. Incubate at room temperature for 30 minutes. • 9. Wash with TBS+0.05% Tween 20 (80 μL x 3). • 10. Add 20 μL 1× working solution of Secondary Antibody in TBS to all wells. Incubate at room temperature for 30 minutes. • 11. Wash with TBS+0.05% Tween 20 (80 μL x 3). • 12. Add 20 μL 1× Development Reagent to all wells. • 13. Incubate at room temperature for 2 hours. Stop the reaction by adding 20 μL Stop Solution to all wells and record Absorbance on a Pherastar plate reader.
Percentage inhibition values were calculated from absorbance values, using the no compound (DMSO) and no enzyme control values as 0% and 100% inhibition, respectively. IC50 determination was performed with ExcelFit software (IDBS) using curve fit 205. Z′ factors were determined for each plate tested and were all above 0.5.

Each structure is given as a SMILES string.

Chain of Cdc7 (O00311 whole entry): as the sequence (O00311 whole entry) above
Chain of Cdc7 (Q9UBU7 whole entry partner): as the sequence (Q9UBU7 whole entry partner) above

For `Cc1ncsc1-c1nc(C2CCOCC2)c(F)c(=O)[nH]1` [Compound 8, 5-fluoro-2-(4-methylthiazol-5-yl)-4-tetrahydropyran-4-yl-1H-pyrimidin-6-one], the EC50 on Cdc7 was 331 nM. Also, the IC50 on Cdc7/ASK was 30.2 nM.
On to `Cc1ncoc1-c1nc(C2CCOCC2)c(Cl)c(=O)[nH]1` [Compound 12, 5-chloro-2-(4-methyloxazol-5-yl)-4-tetrahydropyran-4-yl-1H-pyrimidin-6-one], for which the EC50 on Cdc7 is 3630 nM. Also, on Cdc7/ASK, the IC50 was 363 nM.
In the case of `CCc1ncsc1-c1nc(C2CCOCC2)c(Cl)c(=O)[nH]1` [Compound 13, 5-chloro-2-(4-ethylthiazol-5-yl)-4-tetrahydropyran-4-yl-1H-pyrimidin-6-one], the EC50 at Cdc7 is 1100 nM. Further, the IC50 at Cdc7/ASK was 33.1 nM.
For `CCc1[nH]ncc1-c1nc(C2CCOCC2)c(Cl)c(=O)[nH]1` [Compound 15, 5-chloro-2-(5-ethyl-1H-pyrazol-4-yl)-4-tetrahydropyran-4-yl-1H-pyrimidin-6-one], in that order: 1740 nM and 37.2 nM.
With `Cc1ncsc1-c1nc(C2CCN(C(=O)c3cc(C)n(C)n3)CC2)c(Cl)c(=O)[nH]1` [Compound 23, 5-chloro-4-[1-(1,5-dimethylpyrazole-3-carbonyl)-4-piperidyl]-2-(4-methylthiazol-5-yl)-1H-pyrimidin-6-one], the EC50 at Cdc7 was 3890 nM. Also, at Cdc7/ASK, the IC50 is 3.31 nM.
In the case of `Cc1cc(C(=O)N2CCC(c3nc(-c4scnc4C)[nH]c(=O)c3Cl)CC2)no1` [Compound 25, 5-chloro-4-[1-(5-methylisoxazole-3-carbonyl)-4-piperidyl]-2-(4-methylthiazol-5-yl)-1H-pyrimidin-6-one], at Cdc7, the EC50 is 447 nM. The IC50 at Cdc7/ASK was 4.79 nM.
For `Cc1ncsc1-c1nc(N2CCC(O)CC2)c(Cl)c(=O)[nH]1` [Compound 29, 5-chloro-4-(4-hydroxy-1-piperidyl)-2-(4-methylthiazol-5-yl)-1H-pyrimidin-6-one], in that order: 158 nM and 3.16 nM.
For `Cc1ncsc1-c1nc(N2CCC(C)CC2)c(Cl)c(=O)[nH]1` [Compound 30, 5-chloro-4-(4-methyl-1-piperidyl)-2-(4-methylthiazol-5-yl)-1H-pyrimidin-6-one], in that order: 251 nM and 3.47 nM.
For `Cc1ncsc1-c1nc(N2CCNC(C(F)(F)F)C2)c(Cl)c(=O)[nH]1` (stereo not drawn) [Compound 31, 5-chloro-2-(4-methylthiazol-5-yl)-4-[3-(trifluoromethyl)piperazin-1-yl]-1H-pyrimidin-6-one], in that order: 85.1 nM and 3.63 nM.
For the compound `Cc1ncsc1-c1nc(N2CCN[C@H](C)C2)c(Cl)c(=O)[nH]1` [Compound 32, 5-chloro-4-[(3R)-3-methylpiperazin-1-yl]-2-(4-methylthiazol-5-yl)-1H-pyrimidin-6-one], the EC50 on Cdc7 is 263 nM. In addition, at Cdc7/ASK, the IC50 is 8.71 nM.
For `Cc1ncsc1-c1nc(N2CCC(CO)CC2)c(Cl)c(=O)[nH]1` [Compound 33, 5-chloro-4-[4-(hydroxymethyl)-1-piperidyl]-2-(4-methylthiazol-5-yl)-1H-pyrimidin-6-one], in that order: 100 nM and 2.69 nM.
For `Cc1ncsc1-c1nc(N2CCCC(F)(F)C2)c(Cl)c(=O)[nH]1` [Compound 35, 5-chloro-4-(3,3-difluoro-1-piperidyl)-2-(4-methylthiazol-5-yl)-1H-pyrimidin-6-one] the same measures were 24 nM and 1.41 nM.
For `Cc1ncsc1-c1nc(N2CCCC(CO)C2)c(Cl)c(=O)[nH]1` (stereo not drawn) [Compound 36, 5-chloro-4-[3-(hydroxymethyl)-1-piperidyl]-2-(4-methylthiazol-5-yl)-1H-pyrimidin-6-one] the same measures were 158 nM and 5.89 nM.
On to `Cc1ncsc1-c1nc(N2CCN[C@@H](C)C2)c(Cl)c(=O)[nH]1` [Compound 37, 5-chloro-4-[(3S)-3-methylpiperazin-1-yl]-2-(4-methylthiazol-5-yl)-1H-pyrimidin-6-one], for which, at Cdc7, the EC50 was 110 nM. Besides, the IC50 on Cdc7/ASK is 3.31 nM.
As for `Cc1ncsc1-c1nc(N2CCNCC2)c(Cl)c(=O)[nH]1` [Compound 38, 5-chloro-2-(4-methylthiazol-5-yl)-4-piperazin-1-yl-1H-pyrimidin-6-one], on Cdc7, the EC50 is 83.2 nM. The IC50 at Cdc7/ASK is 2.29 nM.
